Results on one compound are retold here after patent US6589952B2, “Imidazo[1,2-a]pyrazines for the treatment of neurological disorders” (Bristol-Myers Squibb Pharma Company, priority 2000, dated 2003).

Broadly, the melting point is the temperature, or range, at which the solid turns liquid. In turn, `CCCC(O)c1c(CC)nc2c(-c3ccc(Cl)cc3Cl)nccn12` (stereo not shown) [Example 7, 8-(2,4-dichlorophenyl)-2-ethyl-3-(1-hydroxybutyl)imidazo[1,2-a]pyrazine] displayed a melting point of 159 to 160 °C.
